{"source": "paper PMC6776382", "assay": "Two-component Cys-Cys stapling by Pd-catalysed Tsuji-Trost S-allylation with bis(allylic carbonate) Ri ((Z)-but-2-ene-1,4-diyl) or Rj (2-methylenepropane-1,3-diyl), 1.2 eq; 2.4 eq Pd(dba)2, 2.4 eq BIPHEPHOS; bis-thioether formation", "conditions": "the molecule shown is the open-chain precursor, CH3CN/H2O 2:1, 1.0 mM, 40.0 °C, 3.0 h, scale: 1 = cyclic product formed with full conversion of the linear peptide"}
{"substance": "H-Ala-Gly-Cys-Lys-Asn-Phe-Phe-Trp-Lys-Thr-Phe-Thr-Ser-Cys-OH (Cys3/Cys14 free SH; one S carries CH2CH=CHCH2OCO2Me from Ri at closure; single product peak)", "values": [{"measurement": "ring closure, product found", "setting": "42-membered ring", "value": 1}]}
{"substance": "H-Ala-Gly-Cys-Lys-Asn-Phe-Phe-Trp-Lys-Thr-Phe-Thr-Ser-Cys-OH (Cys3/Cys14 free SH; one S carries CH2C(=CH2)CH2OCO2Me from Rj at closure; two monomer peaks plus approx. 10% 2+2 dimer)", "values": [{"measurement": "ring closure, product found", "setting": "41-membered ring", "value": 1}]}
{"substance": "H-Glu-Trp-Ala-Cys-Thr-Ala-Cys-Ala-Lys-Phe-Leu-Ala-Ala-His-Ala-OH (Cys4/Cys7 free SH; one S carries CH2CH=CHCH2OCO2Me from Ri at closure; two product peaks, presumably E/Z)", "values": [{"measurement": "ring closure, product found", "setting": "18-membered ring", "value": 1}]}
{"substance": "H-Glu-Trp-Ala-Cys-Thr-Ala-Ala-Cys-Lys-Phe-Leu-Ala-Ala-His-Ala-OH (Cys4/Cys8 free SH; one S carries CH2CH=CHCH2OCO2Me from Ri at closure; two product peaks, presumably E/Z)", "values": [{"measurement": "ring closure, product found", "setting": "21-membered ring", "value": 1}]}
{"substance": "H-Glu-Trp-Ala-Cys-Thr-Ala-Cys-Ala-Lys-Phe-Leu-Ala-Ala-His-Ala-OH (Cys4/Cys7 free SH; one S carries CH2C(=CH2)CH2OCO2Me from Rj at closure; single product peak)", "values": [{"measurement": "ring closure, product found", "setting": "17-membered ring", "value": 1}]}
{"substance": "H-Glu-Trp-Ala-Cys-Thr-Ala-Ala-Cys-Lys-Phe-Leu-Ala-Ala-His-Ala-OH (Cys4/Cys8 free SH; one S carries CH2C(=CH2)CH2OCO2Me from Rj at closure; single product peak)", "values": [{"measurement": "ring closure, product found", "setting": "20-membered ring", "value": 1}]}
